In patent publication US9238639B2, “Aromatic ring compound” (TAKEDA PHARMACEUTICAL COMPANY LIMITED, priority 2012, dated 2016):

Biological target: T1, human GOAT (Homo sapiens, UniProt Q96T53)
T1 construct: made in house; host or cells: Sf9 insect cells (BacToBac baculovirus, pFastBac1 vector); microsome fraction
T1 sequence (Q96T53 1-435): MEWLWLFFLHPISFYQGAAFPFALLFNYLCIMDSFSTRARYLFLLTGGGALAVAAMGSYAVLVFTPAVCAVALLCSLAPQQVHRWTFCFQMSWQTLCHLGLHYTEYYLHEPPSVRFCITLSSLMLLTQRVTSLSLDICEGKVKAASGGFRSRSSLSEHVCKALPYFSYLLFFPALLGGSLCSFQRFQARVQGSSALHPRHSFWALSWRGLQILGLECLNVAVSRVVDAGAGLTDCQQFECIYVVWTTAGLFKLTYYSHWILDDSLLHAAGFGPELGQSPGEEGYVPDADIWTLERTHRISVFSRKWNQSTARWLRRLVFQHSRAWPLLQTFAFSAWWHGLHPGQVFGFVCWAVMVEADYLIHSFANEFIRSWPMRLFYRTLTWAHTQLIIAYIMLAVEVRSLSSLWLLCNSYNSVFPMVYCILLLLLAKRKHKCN
Assay: GOAT enzyme activity measurement by HTRF method (human GOAT-expressing microsome fraction)
Format: biochemical
Conditions: 10 μM compound; human GOAT-expressing Sf9 microsome fraction; octanoyl-CoA and Ghrelin-biotin substrates; 0% control without compound, 100% control without enzyme
Description: Human GOAT (Accession NO: EU518495) cDNA was amplified by PCR including reaction of (1) 98° C., 1 min, (2) 35 repeats of 98° C., 10 sec·65° C., 15 sec·72° C., 80 sec, and (3) 72° C., 5 min, using human stomach cDNA library (Takara Bio) as a template and Pyrobest DNA Polymerase (Takara Bio). The amplified fragment was treated with restriction enzymes, inserted into Stu I/Not I sites of pFastBacl (Invitrogen) by using Ligation High (TOYOBO), and transfected into ECOS JM109 (Nippon Gene) to construct pFB/hGOAT.
Production of Baculovirus and Preparation of Insect Cell Microsome Fraction
For preparation of baculovirus from pFB/hGOAT, BacToBac baculovirus expression system (Invitrogen) was used. The virus titer was measured by Real-Time PCR using SYBR Green (Takara Bio). Sf9 cells were infected with the obtained baculovirus at Multiplicity of Infection (MOI)=0.2, and cultured for 70 hr. The Sf9 cells were recovered, suspended in a suspension buffer (TBS (0.3 M NaCl), 1 mM DTT, 1 mM EDTA, Complete (Roche) (1 tablet/50 mL)), and the cells were disrupted twice on ice at 20000 rpm, 30 sec using a polytron homogenizer. The cell disruption solution was centrifuged at 1000 rpm for 10 min at 4° C., the supernatant was further ultracentrifuged at 40000 rpm for 30 min at 4° C. and the precipitate was recovered. The obtained precipitate was suspended in the suspension buffer used above to give a human GOAT-expressing microsome fraction. The protein level was measured using BCA Protein assay Reagent (PIERCE).
Enzyme Activity Measurement by HTRF Method
A compound solution (2 μL) diluted with an assay buffer containing 50 mM Tris-HCl (pH 7.5), 0.5% TWEEN20, and Complete to 15% DMSO and 90 μg/mL human GOAT-expressing microsome fraction (2 μL) were incubated at room temperature for 20 min, after which a substrate mixed solution (2 μL) containing 30 μM octanoyl-CoA (CHEM-IMPLEX) and 3 μM Ghrelin-biotin ([…]epsilon aminocaproic acid-biotin (Greiner Coutom synthesis)) was added to 384 white small volume plate (Greiner). After reaction for 20 min, 2 μL of citrate buffer (pH3) (mixed solution of 0.1 M citric acid (39.8 mL) and 0.2 M Na2HPO4 (10.2 mL)), 2 μL of 25 nM anti-active ghrelin antibody (produced in mouse), 5 μL of Eu(K)-Anti Mouse IgG Pab (Cis Bio) 100-fold diluted with HTRF detection buffer (Cis Bio) and 5 μL of streptavidin-Xlent (Cis Bio) 66.6-fold diluted with HTRF detection buffer (Cis Bio) were added. After incubation at room temperature for 1 hr or longer, the fluorescence values at 620 nm and 665 nm were measured by Envision (PerkinElmer). The data was calculated [(665 nm signal/620 nm signal)×10^4], and the inhibitory activity against human GOAT was shown by the data where 0% control was without compound, and 100% control was without enzyme.

| Structure (SMILES) | inhibition at 10 µM [%] |
| --- | --- |
| Cc1nc(C(F)(F)F)ncc1COc1cc(C)c2c(CC(=O)O)csc2c1 [Example 140, (4-Methyl-6-((4-methyl-2-(trifluoromethyl)pyrimidin-5-yl)methoxy)-1-benzothiophen-3-yl)acetic acid] | 100 |
| Cn1nc(C(F)(F)F)cc1COc1cc(Cl)c2c(CC(=O)O)csc2c1Cl [Example 28, (4,7-Dichloro-6-((1-methyl-3-(trifluoromethyl)-1H-pyrazol-5-yl)methoxy)-1-benzothiophen-3-yl)acetic acid] | 105 |
| COC(=O)Cc1csc2c(F)c(OCc3cc(C(F)(F)F)nn3C)cc(Cl)c12 [Example 37, Methyl(4-chloro-7-fluoro-6-((1-methyl-3-(trifluoromethyl)-1H-pyrazol-5-yl)methoxy)-1-benzothiophen-3-yl)acetate] | 98.9 |
| O=C(O)Cc1csc2cc([S+]([O-])Cc3ccc(Cl)cc3Cl)ccc12 (centres unmarked) [Example 84, (6-((2,4-Dichlorobenzyl)sulfinyl)-1-benzothiophen-3-yl)acetic acid] | 67 |
| Cc1nc(C(F)(F)F)ncc1COc1ccc2c(CC(=O)O)csc2c1 [Example 137, (6-((4-Methyl-2-(trifluoromethyl)pyrimidin-5-yl)methoxy)-1-benzothiophen-3-yl)acetic acid] | 97.3 |
| Cc1nc(C(F)(F)F)ccc1COc1cc(Cl)c2c(CC(=O)O)csc2c1F [Example 40, (4-Chloro-7-fluoro-6-((2-methyl-6-(trifluoromethyl)pyridin-3-yl)methoxy)-1-benzothiophen-3-yl)acetic acid] | 106 |
| COC(=O)Cc1coc2c(C)c(OCc3ccc(C)nc3C)cc(C)c12 [Example 43, Methyl(6-((2,6-dimethylpyridin-3-yl)methoxy)-4,7-dimethyl-1-benzofuran-3-yl)acetate] | 92.7 |
| CCOC(=O)Cc1csc2cc(OCc3ccc(C)nc3C)ccc12 [Example 3, Ethyl(6-((2,6-dimethylpyridin-3-yl)methoxy)-1-benzothiophen-3-yl)acetate] | 92.8 |
| Cc1ccc(COc2ccc3c(CC(=O)O)csc3c2)c(C)n1 [Example 4, (6-((2,6-Dimethylpyridin-3-yl)methoxy)-1-benzothiophen-3-yl)acetic acid] | 99 |
| CC(=O)NCCc1coc2cc(OCc3ccc(Cl)cc3Cl)ccc12 [Example 196, N-(2-(6-(2,4-Dichlorobenzyloxy)-1-benzofuran-3-yl)ethyl)acetamide] | 73 |
| Cc1cc(COc2cc(C)c3c(CC(=O)O)csc3c2)n(C)n1 [Example 8, (6-((1,3-Dimethyl-1H-pyrazol-5-yl)methoxy)-4-methyl-1-benzothiophen-3-yl)acetic acid] | 95.6 |
| Cc1nc(C(F)(F)F)ccc1COc1cc(C)c2c(CC(=O)O)csc2c1 [Example 10, (4-Methyl-6-((2-methyl-6-(trifluoromethyl)pyridin-3-yl)methoxy)-1-benzothiophen-3-yl)acetic acid] | 99.2 |
| Cc1cc(OCc2cc(C(F)(F)F)nn2C)cc2scc(CC(=O)O)c12 [Example 12, (4-Methyl-6-((1-methyl-3-(trifluoromethyl)-1H-pyrazol-5-yl)methoxy)-1-benzothiophen-3-yl)acetic acid] | 104 |
| Cc1nc(C(F)(F)F)ccc1COc1cc(F)c2c(CC(=O)O)csc2c1 [Example 305, (4-Fluoro-6-((2-methyl-6-(trifluoromethyl)pyridin-3-yl)methoxy)-1-benzothiophen-3-yl)acetic acid] | 102 |
| COC(=O)Cc1csc2cc(OCc3ccc(C)nc3C)cc(Cl)c12 [Example 13, Methyl(4-chloro-6-((2,6-dimethylpyridin-3-yl)methoxy)-1-benzothiophen-3-yl)acetate] | 96.5 |
| Cn1nc(C(F)(F)F)cc1COc1cc(F)c2c(CC(=O)O)csc2c1 [Example 303, (4-Fluoro-6-((1-methyl-3-(trifluoromethyl)-1H-pyrazol-5-yl)methoxy)-1-benzothiophen-3-yl)acetic acid] | 104 |
| O=C(Cc1csc2cc(OCc3ccc(Cl)cc3Cl)ccc12)N[C@@H](CO)C(=O)O [Example 56, N-((6-((2,4-Dichlorobenzyl)oxy)-1-benzothiophen-3-yl)acetyl)serine] | 97 |
